Laboratory results from patent US20210109103A1, “METHODS AND KITS FOR DETECTING O-GlcNAc SITES USING B3GALNT2 AND OGT” (BIO-TECHNE CORPORATION, priority 2018, published 2021).

Key:
[1] = molecular target: T1, recombinant human B3GALNT2 (Homo sapiens, UniProt Q8NCR0); experiment: phosphatase coupled universal glycosyltransferase assay, B3GALNT2; assay type: biochemical; settings: 0.4 mM nucleotide sugar donor, 2 mM acceptor benzyl-β-GlcNAc, 1 μg B3GALNT2, 37° C., 20 minutes; compared with UDP-GalNAc (FIG. 8)
T1 construct: purchased R&D Systems and/or Bio-Techne
T1 sequence (Q8NCR0 1-500): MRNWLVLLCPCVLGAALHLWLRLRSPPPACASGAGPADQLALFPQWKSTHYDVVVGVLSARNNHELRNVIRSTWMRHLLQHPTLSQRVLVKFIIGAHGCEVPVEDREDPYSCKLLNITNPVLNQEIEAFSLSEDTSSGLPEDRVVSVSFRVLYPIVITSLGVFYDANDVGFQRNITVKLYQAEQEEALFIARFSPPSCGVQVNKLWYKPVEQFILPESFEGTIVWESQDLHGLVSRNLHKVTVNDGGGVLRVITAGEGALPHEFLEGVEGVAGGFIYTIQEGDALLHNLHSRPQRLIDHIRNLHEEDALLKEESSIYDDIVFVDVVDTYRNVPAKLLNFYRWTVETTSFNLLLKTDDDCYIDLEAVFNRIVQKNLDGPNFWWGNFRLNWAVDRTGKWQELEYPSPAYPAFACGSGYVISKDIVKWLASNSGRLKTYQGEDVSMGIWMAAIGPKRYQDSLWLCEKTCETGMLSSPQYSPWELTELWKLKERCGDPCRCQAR
Experimental: (§1) Using a phosphatase coupled universal glycosyltransferase assay, an analysis of the activity of B3GALNT2 and OGT on regular nucleotide sugar as compared to azido nucleotide sugar was performed. For the B3GALNT2 assay, 0.4 mM nucleotide sugar donor (UDP-GalNAc or UDP-GalNAz), 2 mM of acceptor substrate benzyl-β-GlcNAc, and 0.1 μg of coupling phosphatase 1 were combined with 1 μg of B3GALNT2 in 50 μL of assay buffer of 25 mM Tris at pH 7.5, 10 mM MnCl2 and 10 mM CaCl2 at 37° C. for 20 minutes. For the OGT assay, 0.4 mM nucleotide sugar donor (UDP-GlcNAc or UDP-GlcNAz), 0.2 mM of acceptor OGT substrate, and 0.1 μg of coupling phosphatase 1 were combined with 2.5 μg of OGT in 50 μL of assay buffer of 25 mM Tris at pH 7.5, 10 mM MnCl2 and 10 mM CaCl2 at 37° C. for 20 minutes. Both assays were performed according to the Universal Glycosyltransferase Assay Kit from R&D Systems®. FIG. 8 is a bar graph of the activity of B3GALNT2 and OGT on regular nucleotide sugars compared to azido nucleotide sugars.

[2] = molecular target: T2, recombinant human O-GlcNAc transferase (OGT) (Homo sapiens, UniProt O15294); experiment: phosphatase coupled universal glycosyltransferase assay, OGT; assay type: biochemical; settings: 0.4 mM nucleotide sugar donor, 0.2 mM acceptor OGT substrate, 2.5 μg OGT, 37° C., 20 minutes (FIG. 8)
T2 construct: purchased R&D Systems and/or Bio-Techne
T2 sequence (O15294 1-1046): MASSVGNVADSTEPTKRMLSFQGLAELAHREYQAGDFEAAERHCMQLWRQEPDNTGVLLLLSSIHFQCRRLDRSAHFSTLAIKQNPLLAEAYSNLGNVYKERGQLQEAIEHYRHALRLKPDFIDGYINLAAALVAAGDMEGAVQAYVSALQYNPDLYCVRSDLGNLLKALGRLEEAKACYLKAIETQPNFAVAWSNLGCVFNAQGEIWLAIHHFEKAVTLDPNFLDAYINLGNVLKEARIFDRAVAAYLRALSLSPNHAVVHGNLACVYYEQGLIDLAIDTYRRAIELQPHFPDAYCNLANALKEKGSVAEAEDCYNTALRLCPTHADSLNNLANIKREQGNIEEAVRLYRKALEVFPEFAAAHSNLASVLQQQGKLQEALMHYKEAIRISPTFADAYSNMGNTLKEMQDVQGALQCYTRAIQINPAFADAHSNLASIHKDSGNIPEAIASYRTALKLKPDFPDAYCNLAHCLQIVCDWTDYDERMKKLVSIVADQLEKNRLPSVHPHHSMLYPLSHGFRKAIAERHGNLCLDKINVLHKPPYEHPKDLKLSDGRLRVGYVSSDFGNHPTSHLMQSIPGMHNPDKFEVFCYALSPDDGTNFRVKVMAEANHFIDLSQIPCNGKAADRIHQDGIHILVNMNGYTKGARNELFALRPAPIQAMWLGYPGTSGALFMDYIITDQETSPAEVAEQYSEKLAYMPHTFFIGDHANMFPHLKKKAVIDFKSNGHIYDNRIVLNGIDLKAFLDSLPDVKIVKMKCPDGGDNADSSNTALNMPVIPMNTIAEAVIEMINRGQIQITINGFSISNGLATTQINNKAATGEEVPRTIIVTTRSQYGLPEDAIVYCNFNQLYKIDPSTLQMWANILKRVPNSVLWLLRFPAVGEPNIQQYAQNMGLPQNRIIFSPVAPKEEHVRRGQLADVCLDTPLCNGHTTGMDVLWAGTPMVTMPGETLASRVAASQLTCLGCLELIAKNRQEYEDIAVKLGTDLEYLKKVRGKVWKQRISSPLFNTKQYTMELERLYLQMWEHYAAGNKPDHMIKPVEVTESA
Experimental: as §1

| activity of OGT on azido nucleotide sugar compared to regular nucleotide sugar [2] | SMILES | activity of B3GALNT2 on azido nucleotide sugar compared to regular nucleotide sugar [1] |
| --- | --- | --- |
|  | [N-]=[N+]=NCC(=O)N[C@H]1[C@@H](OP(=O)(O)OP(=O)(O)OC[C@H]2O[C@@H](n3ccc(=O)[nH]c3=O)[C@H](O)[C@@H]2O)O[C@H](CO)[C@H](O)[C@@H]1O [UDP-GalNAz] | more active on UDP-GalNAz than on UDP-GalNAc |
| equally active | CC(=O)N[C@H]1[C@@H](OP(=O)(O)OP(=O)(O)OC[C@H]2O[C@@H](n3ccc(=O)[nH]c3=O)[C@H](O)[C@@H]2O)O[C@H](CO)[C@@H](O)[C@@H]1O [UDP-GlcNAc] |  |
| equally active | [N-]=[N+]=NCC(=O)N[C@H]1[C@@H](OP(=O)(O)OP(=O)(O)OC[C@H]2O[C@@H](n3ccc(=O)[nH]c3=O)[C@H](O)[C@@H]2O)O[C@H](CO)[C@@H](O)[C@@H]1O [UDP-GlcNAz] |  |
